Measurements from PMC5116409 (Nanomedicine : nanotechnology, biology, and medicine, 2016).

How the values were obtained:
[1] = target: T1, HIV-1 reverse transcriptase K103N+Y181C (Human immunodeficiency virus type 1 group M subtype B, UniProt P03366, K702N/Y780C); assay: RNA-dependent DNA polymerization by recombinant HIV-1 RT; format: biochemical; settings: From DMSO stock solution
[2] = target: T2, HIV-1 reverse transcriptase Wild type (Human immunodeficiency virus type 1 group M subtype B, UniProt P03366); assay: DNA-dependent DNA polymerization by recombinant HIV-1 RT; format: biochemical; settings: From DMSO stock solution
[3] = target: T3, HIV-1 reverse transcriptase Y181C (Human immunodeficiency virus type 1 group M subtype B, UniProt P03366, Y780C); assay: RNA-dependent DNA polymerization by recombinant HIV-1 RT; format: biochemical
[4] = target: T4, HIV-1 reverse transcriptase K103N (Human immunodeficiency virus type 1 group M subtype B, UniProt P03366, K702N); assay: DNA-dependent DNA polymerization by recombinant HIV-1 RT; format: biochemical
[5] = target: T5, HIV-1 reverse transcriptase L100I (Human immunodeficiency virus type 1 group M subtype B, UniProt P03366, L699I); assay: RNA-dependent DNA polymerization by recombinant HIV-1 RT; format: biochemical
[6] = target: T6, HIV-1 reverse transcriptase G190A (Human immunodeficiency virus type 1 group M subtype B, UniProt P03366, G789A); assay: DNA-dependent DNA polymerization by recombinant HIV-1 RT; format: biochemical
[7] = target: T1, HIV-1 reverse transcriptase K103N+Y181C; assay: as above; format: biochemical; settings: From DMSO stock solution
[8] = target: T7, HIV-1 reverse transcriptase V106A (Human immunodeficiency virus type 1 group M subtype B, UniProt P03366, V705A); assay: RNA-dependent DNA polymerization by recombinant HIV-1 RT; format: biochemical
[9] = target: T3, HIV-1 reverse transcriptase Y181C; assay: DNA-dependent DNA polymerization by recombinant HIV-1 RT; format: biochemical
[10] = target: T2, HIV-1 reverse transcriptase Wild type; assay: biochemical; settings: RNA-dependent DNA polymerization, IC50, Wild type RT; From DMSO stock solution
[11] = target: T6, HIV-1 reverse transcriptase G190A; assay: RNA-dependent DNA polymerization by recombinant HIV-1 RT; format: biochemical
[12] = target: T5, HIV-1 reverse transcriptase L100I; assay: DNA-dependent DNA polymerization by recombinant HIV-1 RT; format: biochemical
[13] = target: T4, HIV-1 reverse transcriptase K103N; assay: RNA-dependent DNA polymerization by recombinant HIV-1 RT; format: biochemical
[14] = target: T7, HIV-1 reverse transcriptase V106A; assay: DNA-dependent DNA polymerization by recombinant HIV-1 RT; format: biochemical
[15] = toxicity to cells, WST-1 test; format: cell-based; settings: human

SMILES | IC50 [1] [µM] | IC50 [2] [µM] | IC50 ([3]; Complex with HC-PGC (M5P21OL)) [µM] | IC50 ([3]; From DMSO stock solution) [µM] | IC50 ([4]; Complex with HC-PGC (M5P21OL)) [µM] | IC50 ([4]; From DMSO stock solution) [µM] | IC50 ([5]; Complex with HC-PGC (M5P21OL)) [µM] | IC50 ([5]; From DMSO stock solution) [µM] | IC50 ([6]; Complex with HC-PGC (M5P21OL)) [µM] | IC50 ([6]; From DMSO stock solution) [µM] | IC50 [7] [µM] | IC50 [8] [µM] | IC50 ([9]; Complex with HC-PGC (M5P21OL)) [µM] | IC50 ([9]; From DMSO stock solution) [µM] | IC50 [10] [µM] | IC50 ([11]; Complex with HC-PGC (M5P21OL)) [µM] | IC50 ([12]; Complex with HC-PGC (M5P21OL)) [µM] | IC50 ([12]; From DMSO stock solution) [µM] | IC50 [14] [µM] | CC50 at 4 h [15] [µM] | other results
Cc1cc(C)cc(C(=O)c2cc(C)ccc2OCCn2ccc(=O)[nH]c2=O)c1 [Z007, 1-(2-(2-(3,5-dimethylbenzoyl)-4-methylphenoxy)ethyl)pyrimidine-2,4(1H,3H)-dione] | > 100 | 40 ± 10 | > 100 | > 100 | > 100 | > 100 | > 100 | 100 ± 30 | > 100 | > 100 | > 100 | > 100 | > 100 | > 100 | 50 ± 20 | > 100 | > 100 | > 100 | > 100 | > 50 | IC50 ([11]; From DMSO stock solution): > 100 µM; IC50 ([13]; Complex with HC-PGC (M5P21OL)): > 100 µM; IC50 ([13]; From DMSO stock solution): > 100 µM
O=C(c1cc(Cl)cc(Cl)c1)c1cc(Br)ccc1OCCn1ccc(=O)[nH]c1=O [Z011, 1-(2-(4-bromo-2-(3,5-dichlorobenzoyl)phenoxy)ethyl)pyrimidine-2,4(1H,3H)-dione] | – | 0.7 ± 0.1 | – | – | > 100 | 6 ± 1 | – | – | 2.6 ± 0.7 | 1.6 ± 0.3 | 10 ± 3 | – | 22 ± 5 | 1.4 ± 0.5 | – | – | > 100 | 1.8 ± 0.6 | > 100 | > 50 | –
Cc1cc(C)cc(C(=O)c2cc(Cl)ccc2OCCn2c3c(c(=O)[nH]c2=O)CCC3)c1 [Z107, 1-(2-(4-chloro-2-(3,5-dimethylbenzoyl)phenoxy)ethyl)-1,5,6,7-tetrahydro-2H-cyclopenta[d]pyrimidine-2,4(3H)-dione] | 80 ± 30 | 0.7 ± 0.2 | 40 ± 10 | 5 ± 2 | 95 ± 15 | 70 ± 2 | 15 ± 4 | 10 ± 3 | 0.9 ± 0.3 | 45 ± 15 | 50 ± 20 | > 100 | 1.9 ± 0.5 | 6 ± 2 | 3 ± 1 | 70 ± 20 | 1.5 ± 0.2 | 3 ± 1 | > 100 | > 50 | IC50 ([11]; From DMSO stock solution): 35 ± 10 µM; IC50 ([13]; Complex with HC-PGC (M5P21OL)): 100 ± 30 µM; IC50 ([13]; From DMSO stock solution): 40 ± 10 µM
